Test results taken from patent US20170022171A1, “2,5-DISUBSTITUTED CYCLOPENTANECARBOXYLIC ACIDS AND THEIR USE” (Bayer Pharma Aktiengesellschaft, priority 2014, published 2017).

Columns and labels:
Type in all cases: biochemical
mouse MMP-2 = biological target: T1, mouse MMP-2 (Mus musculus, UniProt P33434); assay: In vitro mouse MMP-2 inhibition test
T1 construct: purchased R&D Systems 924-MP
Text: (§1) The MMP-mediated amidolytic cleavage of a suitable peptide substrate leads to an increase in fluorescent light here too. The signal intensity of the fluorescent light is directly proportional to the enzyme activity. The active concentration of a test compound at which half the enzyme is inhibited (50% signal intensity of the fluorescent light) is reported as the IC50 value.
(§2) Recombinant mouse MMP-2 (from R&D Systems, 924-MP) is chemically activated in accordance with the manufacturer's instructions using APMA. 1 μl of the test compound to be analysed (as a solution in DMSO, suitable concentrations, for example, 1 nM to 30 μM) is pipetted into 24 μl of activated enzyme (final concentration, for example, 0.1 nM) in reaction buffer (50 mM Tris/HCl pH 7.5, 10 mM CaCl2, 150 mM NaCl, 0.05% Brij®-35) in a white 384-hole microtiter plate (MTP). The enzymatic reaction is started by adding the intramolecularly quenched Mca-Pro-Leu-Gly-Leu-Dpa(Dnp)-Ala-Arg-NH2 substrate (final concentration, for example, 10 μM; R&D Systems, ES-001), so as to result in a total test volume of 50 The course of the MMP-2 reaction is measured by measuring the fluorescence intensity (excitation 320 nm, emission 410 nm) over a suitable period of time (for example over 120 min at a temperature of 32° C.).

mouse MMP-9 = biological target: T2, mouse MMP-9 (Mus musculus, UniProt P41245); assay: In vitro mouse MMP-9 inhibition test
T2 construct: purchased R&D Systems 909-MP
T2 sequence (P41245 108-730): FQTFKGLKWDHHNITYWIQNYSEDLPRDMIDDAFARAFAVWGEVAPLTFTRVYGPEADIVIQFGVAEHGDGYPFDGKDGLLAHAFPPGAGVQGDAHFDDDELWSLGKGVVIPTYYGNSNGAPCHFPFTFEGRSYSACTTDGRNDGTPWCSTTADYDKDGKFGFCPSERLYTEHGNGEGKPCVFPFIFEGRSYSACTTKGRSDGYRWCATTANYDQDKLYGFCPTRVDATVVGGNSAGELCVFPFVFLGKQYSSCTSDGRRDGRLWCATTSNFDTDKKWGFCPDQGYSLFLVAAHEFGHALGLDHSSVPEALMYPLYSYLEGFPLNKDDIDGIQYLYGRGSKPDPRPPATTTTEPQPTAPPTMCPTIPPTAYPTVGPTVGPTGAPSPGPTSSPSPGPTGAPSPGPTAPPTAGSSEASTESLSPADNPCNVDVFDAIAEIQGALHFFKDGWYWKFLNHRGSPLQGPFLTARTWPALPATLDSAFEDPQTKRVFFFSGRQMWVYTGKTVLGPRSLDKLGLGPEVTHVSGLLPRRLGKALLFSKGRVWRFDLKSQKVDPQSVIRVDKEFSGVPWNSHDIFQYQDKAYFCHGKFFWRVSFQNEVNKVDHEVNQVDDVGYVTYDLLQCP
Text: as §1
as §2, with “mouse MMP-9” for “mouse MMP-2”, “Systems, 909-MP)” for “Systems, 924-MP)”, “example, 5” for “example, 10”, “the MMP-9” for “the MMP-2”

MMP-2 = biological target: T3, MMP-2 (Homo sapiens, UniProt P08253); assay: In vitro MMP-2 inhibition test
T3 construct: purchased R&D Systems 902-MP
T3 sequence (P08253 110-660): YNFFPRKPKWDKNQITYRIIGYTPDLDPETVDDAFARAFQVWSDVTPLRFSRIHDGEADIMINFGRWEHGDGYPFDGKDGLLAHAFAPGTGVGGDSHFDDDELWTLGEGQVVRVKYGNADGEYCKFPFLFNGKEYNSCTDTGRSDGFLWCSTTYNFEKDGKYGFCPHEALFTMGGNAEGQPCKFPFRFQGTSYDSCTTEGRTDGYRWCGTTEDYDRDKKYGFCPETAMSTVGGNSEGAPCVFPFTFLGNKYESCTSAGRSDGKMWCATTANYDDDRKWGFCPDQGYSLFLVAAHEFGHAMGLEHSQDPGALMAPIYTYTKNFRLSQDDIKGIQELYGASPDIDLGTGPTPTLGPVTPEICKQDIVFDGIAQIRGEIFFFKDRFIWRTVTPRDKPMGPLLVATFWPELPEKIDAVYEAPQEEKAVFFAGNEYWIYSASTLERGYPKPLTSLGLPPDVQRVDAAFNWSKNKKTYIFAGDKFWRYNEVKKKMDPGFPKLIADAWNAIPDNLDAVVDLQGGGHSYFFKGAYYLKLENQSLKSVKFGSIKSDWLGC
Text: as §1
as §2, with “Recombinant MMP-2 (from” for “Recombinant mouse MMP-2 (from”, “R&D Systems, 902-MP) is chemically” for “R&D Systems, 924-MP) is chemically”, “for example, 2 nM) in” for “for example, 0.1 nM) in”, “of 50 μl. The course” for “of 50 The course”

MMP-10 = biological target: T4, MMP-10 (Homo sapiens, UniProt P09238); assay: In vitro MMP-10 inhibition test
T4 construct: purchased R&D Systems 910-MP
T4 sequence (P09238 99-476): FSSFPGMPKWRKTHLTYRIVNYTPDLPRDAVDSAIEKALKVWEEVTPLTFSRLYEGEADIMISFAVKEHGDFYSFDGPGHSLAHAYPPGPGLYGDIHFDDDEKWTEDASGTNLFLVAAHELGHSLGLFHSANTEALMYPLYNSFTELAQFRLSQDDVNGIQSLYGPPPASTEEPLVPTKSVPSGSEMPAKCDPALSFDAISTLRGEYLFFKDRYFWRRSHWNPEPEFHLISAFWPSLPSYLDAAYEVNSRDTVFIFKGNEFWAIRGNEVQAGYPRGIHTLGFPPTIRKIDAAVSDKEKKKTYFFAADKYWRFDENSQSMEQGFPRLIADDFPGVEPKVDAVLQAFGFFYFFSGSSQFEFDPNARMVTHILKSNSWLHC
Text: as §1
Recombinant MMP-10 (from R&D Systems, 910-MP) is chemically activated in accordance with the manufacturer's instructions using APMA. 1 μl of the test compound to be analysed (as a solution in DMSO, suitable concentrations, for example, 1 nM to 30 μM) is pipetted into 24 μl of activated enzyme (final concentration, for example, 2 nM) in reaction buffer (50 mM Tris/HCl pH 7.5, 10 mM CaCl2, 150 mM NaCl, 0.05% Brij®-35) in a white 384-hole microtiter plate (MTP). The enzymatic reaction is started by adding the intramolecularly quenched Mca-Arg-Pro-Lys-Pro-Val-Glu-Nval-Trp-Arg-Lys(Dnp)-NH2 substrate (final concentration, for example, 10 μM; R&D Systems, ES-002), so as to result in a total test volume of 50 μl. The course of the MMP-10 reaction is measured by measuring the fluorescence intensity (excitation 320 nm, emission 410 nm) over a suitable period of time (for example over 120 min at a temperature of 32° C.).

T1 sequence (P33434 110-662): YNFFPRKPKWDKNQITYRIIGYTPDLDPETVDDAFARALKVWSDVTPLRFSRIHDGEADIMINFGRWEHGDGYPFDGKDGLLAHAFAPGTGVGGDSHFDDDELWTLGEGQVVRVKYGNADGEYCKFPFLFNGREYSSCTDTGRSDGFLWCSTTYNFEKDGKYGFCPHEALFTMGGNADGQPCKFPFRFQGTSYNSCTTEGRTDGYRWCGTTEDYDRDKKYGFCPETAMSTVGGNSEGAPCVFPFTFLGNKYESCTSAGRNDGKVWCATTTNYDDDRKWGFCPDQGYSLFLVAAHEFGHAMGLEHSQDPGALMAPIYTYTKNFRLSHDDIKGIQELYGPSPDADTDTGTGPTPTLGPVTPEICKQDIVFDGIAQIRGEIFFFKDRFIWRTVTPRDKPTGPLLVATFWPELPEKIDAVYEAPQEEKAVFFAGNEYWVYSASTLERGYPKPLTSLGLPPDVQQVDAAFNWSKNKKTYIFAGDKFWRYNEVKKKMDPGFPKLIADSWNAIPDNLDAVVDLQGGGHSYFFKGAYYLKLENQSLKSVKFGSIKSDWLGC

Row | Structure (SMILES) | IC50 (mouse MMP-2) [nM] | IC50 (mouse MMP-9) [nM] | IC50 (MMP-2) [nM] | IC50 (MMP-10) [nM]
1 | O=C(O)[C@H]1[C@H](Cn2nnc3ccccc3c2=O)CC[C@@H]1C(=O)c1ccc(OCc2ccc(F)cc2)cc1 (racemic) [Example 1, (+/−)-(1RS,2RS,5SR)-2-{4-[(4-Fluorobenzyl)oxy]benzoyl}-5-[(4-oxo-1,2,3-benzotriazin-3(4H)-yl)methyl]cyclopentanecarboxylic acid] | 14 | 31 | 9.3 | 33
2 | O=C(O)[C@H]1[C@H](Cn2nnc3ccccc3c2=O)CC[C@@H]1C(=O)c1ccc(OCc2cccc(Cl)c2)cc1 (racemic) [Example 2, (+/−)-(1RS,2RS,5SR)-2-{4-[(3-Chlorobenzyl)oxy]benzoyl}-5-[(4-oxo-1,2,3-benzotriazin-3(4H)-yl)methyl]cyclopentanecarboxylic acid] | 400 | 1100 | 290 | 310
3 | O=C(O)[C@H]1[C@H](Cn2nnc3ccccc3c2=O)CC[C@@H]1C(=O)c1ccc(OCc2ccc(Cl)c(Cl)c2)cc1 (racemic) [Example 3, (+/−)-(1RS,2RS,5SR)-2-{4-[(3,4-Dichlorobenzyl)oxy]benzoyl}-5-[(4-oxo-1,2,3-benzotriazin-3(4H)-yl)methyl]cyclopentanecarboxylic acid] | 290 | 2600 | 190 | 430
4 | O=C(O)[C@H]1[C@H](Cn2nnc3ccccc3c2=O)CC[C@@H]1C(=O)c1ccc(OCC2CCCC2)cc1 (racemic) [Example 4, (+/−)-(1RS,2RS,5SR)-2-[4-(Cyclopentylmethoxy)benzoyl]-5-[(4-oxo-1,2,3-benzotriazin-3(4H)-yl)methyl]cyclopentanecarboxylic acid] | 100 | 61 | 84 | 110
5 | O=C(O)[C@H]1[C@H](Cn2nnc3ccccc3c2=O)CC[C@@H]1C(=O)c1ccc(OCCC2CCCCC2)cc1 (racemic) [Example 5, (+/−)-(1RS,2RS,5SR)-2-[4-(2-Cyclohexylethoxy)benzoyl]-5-[(4-oxo-1,2,3-benzotriazin-3(4H)-yl)methyl]cyclopentanecarboxylic acid] | 270 | 930 | 220 | 93
6 | O=C(O)[C@H]1[C@H](Cn2nnc3ccc(C(F)(F)F)cc3c2=O)CC[C@@H]1C(=O)c1ccc(OCc2ccccc2)cc1 (racemic) [Example 11, (+/−)-(1RS,2RS,5SR)-2-[4-(Benzyloxy)benzoyl]-5-{[4-oxo-6-(trifluoromethyl)-1,2,3-benzotriazin-3(4H)-yl]methyl}cyclopentanecarboxylic acid] | 250 | 61 | 210 | 16
7 | O=C(O)[C@H]1[C@H](Cn2nnc3ccc(C(F)(F)F)cc3c2=O)CC[C@@H]1C(=O)c1ccc(OCCCc2ccccc2)cc1 (racemic) [Example 39, (+/−)-(1RS,2SR,5RS)-2-{[4-Oxo-6-(trifluoromethyl)-1,2,3-benzotriazin-3(4H)-yl]methyl}-5-[4-(3-phenylpropoxy)benzoyl]cyclopentanecarboxylic acid] | 3800 | > 40000 | 4600 | 170
8 | O=C(O)[C@H]1[C@H](Cn2nnc3ccc(C(F)(F)F)cc3c2=O)CC[C@@H]1C(=O)c1ccc(OCC2CCCCC2)cc1 (racemic) [Example 40, (+/−)-(1RS,2RS,5SR)-2-[4-(Cyclohexylmethoxy)benzoyl]-5-{[4-oxo-6-(trifluoromethyl)-1,2,3-benzotriazin-3(4H)-yl]methyl}cyclopentanecarboxylic acid] | 570 | 640 | 440 | 21
9 | O=C(O)[C@H]1[C@H](Cn2nnc3ccc(C(F)(F)F)cc3c2=O)CC[C@@H]1C(=O)c1ccc(OCCCC2CCCCC2)cc1 (racemic) [Example 56, (+/−)-(1RS,2RS,5SR)-2-{4-(3-Cyclohexylpropoxy)benzoyl}-5-{[4-oxo-6-(trifluoromethyl)-1,2,3-benzotriazin-3(4H)-yl]methyl}cyclopentanecarboxylic acid] | 5000 | > 40000 | 2800 | 250
10 | O=C(O)[C@H]1[C@H](Cn2nnc3ccc(C(F)(F)F)cc3c2=O)CC[C@@H]1C(=O)c1ccc(SCc2ccc(Cl)c(Cl)c2)cc1 (racemic) [Example 79, (+/−)-(1RS,2RS,5SR)-2-{4-[(3,4-Dichlorobenzyl)sulphanyl]benzoyl}-5-{[4-oxo-6-(trifluoromethyl)-1,2,3-benzotriazin-3(4H)-yl]methyl}cyclopentanecarboxylic acid] | 5900 | 2100 | 4000 | 310
11 | Cc1ccc2nnn(C[C@@H]3CC[C@H](C(=O)c4ccc(OCc5ccccc5)cc4)[C@H]3C(=O)O)c(=O)c2c1 (racemic) [Example 91, (+/−)-(1RS,2RS,5SR)-2-[4-(Benzyloxy)benzoyl]-5-[(6-methyl-4-oxo-1,2,3-benzotriazin-3(4H)-yl)methyl]cyclopentanecarboxylic acid] | 95 | 72 | 100 | 21
12 | Cc1cccc(COc2ccc(C(=O)[C@H]3CC[C@@H](Cn4nnc5ccc(C)cc5c4=O)[C@@H]3C(=O)O)cc2)c1 (racemic) [Example 97, (+/−)-(1RS,2RS,5SR)-2-{4-[(3-Methylbenzyl)oxy]benzoyl}-5-[(6-methyl-4-oxo-1,2,3-benzotriazin-3(4H)-yl)methyl]cyclopentanecarboxylic acid] | 1900 | 1600 | 2300 | 160
